Test results taken from publication PMC8116058, “De novo macrocyclic peptides dissect energy coupling of a heterodimeric ABC transporter by multimode allosteric inhibition” (eLife, 2021).
Positions of bridges follow the written chain, without caps; N, C: chain ends. Non-standard residues stand in square brackets, D forms with d. Residues, ends and D or L forms follow the SMILES beside them. *: point of attachment. 5FAM = O=C1OC2(c3ccc(O)cc3Oc3cc(O)ccc32)c2ccc(C(=O)*)cc21; βAla = NCCC(=O)O

Columns and labels:
[1] = tested on: TmrAB; test: ATP binding by scintillation proximity assay (SPA); parameters: species or system Thermus thermophilus; conditions: CP^B 1 µM; for Effect on ATP binding to TmrAB: SPA; for Signal, ATP binding: TmrAB 0.2 µM on SPA beads, ATP 3 µM traced with 3H-ATP, 30 min on ice, without CP 5.06; for Signal, Background: after release of TmrAB from beads with imidazole 200 mM
Excerpt: To elucidate the mechanistic basis for the inhibition of ATP hydrolysis and substrate transport, we investigated the effects of CPs on substrate binding. In the first approach, fluorescent CP^Fs were used as reporters in fluorescence polarization. […] In addition, we examined the impact of CP^Bs on ATP binding to TmrAB by scintillation proximity assays (SPA) (Figure 4C). […] Taken together, CPs are high-affinity allosteric inhibitors of TmrAB that leave ATP binding and substrate interaction largely unaffected, while impairing ATP hydrolysis and substrate translocation across the membrane.
Figure 4. […] (A) CP^Fs binding TmrAB is not affected by substrate peptide binding. […] For competition, C4^ATTO655 peptide (2 µM) or R9LQK peptide (200 µM) were added. (B) Binding of C4F peptide is not affected by CP^Bs. C4F peptides (50 nM) were mixed with TmrAB (4 µM), and fluorescence anisotropy was monitored as described in (A). For competition, C4^ATTO655 (10 µM) or CP^Bs (6 µM) were added. […] TmrAB (0.2 µM) were immobilized on SPA beads and incubated with ATP (3 μM, traced with ^3H-ATP) in the presence and absence of CP^Bs (1 µM each) for 30 min on ice. ATP binding was monitored by SPA. Background values were determined after releasing TmrAB complexes from the beads by adding imidazole (200 mM). The background signal in the absence of CP^Bs was set to 0 cpm. […] As this is an equilibrium experiment, this can be rationalized by the fact that CP13 stabilizes the ATP-bound OF conformer. Figure 4—source data 1. Source data for Figure 4.
DDM-solubilized TmrAB (0.2 µM) was incubated with ATP (2.8 μM), [2,5’,8-^3H(N)]-ATP (0.2 µM, ^3H-ATP, PerkinElmer), MgCl2 (3 mM), and CP^Bs (1 µM) for 30 min on ice. Copper-chelated SPA beads (PerkinElmer) were added to a final concentration of 5 mg/ml. Total binding was determined at 20°C in cpm mode (Wallac MicroBeta). Bound TmrAB complexes were eluted by adding 200 mM of imidazole, and background binding was determined. Data represent mean ± SD from three experiments.

[2] = tested on: wild-type TmrAB in liposomes; test: Single-liposome flow cytometry transport assay; type: biochemical, Thermus thermophilus; conditions: for Peptides/liposome, time course / Mean fluorescence intensity * 10^3, time course / C4^ATTO655 peptides per liposome transported along a single IF-to-OF switch / Transported C4^ATTO655, Peptides/liposome: CP^F 1 µM; for Peptides/liposome, time course / Mean fluorescence intensity * 10^3, time course / Transported C4^ATTO655, Peptides/liposome: C4^ATTO655 1 µM; for Peptides/liposome, time course: corrected by ADP background; for Peptide transport in two successive IF-to-OF cycles: 5 min 45°C / 60 min 4°C, repeated; for C4^ATTO655 peptides per liposome transported along a single IF-to-OF switch / Transported C4^ATTO655, Peptides/liposome: 5 min 45°C; for C4^ATTO655 peptides per liposome transported along a single IF-to-OF switch: ~30 transport-competent TmrAB per liposome; for Transported C4^ATTO655, Peptides/liposome: TmrAB 0.4 µM, ATP 3 mM, ATP without CP 84.57, ADP 3.52; for Peptide transport rate compared to control without CP^Fs / Turnover of wild-type TmrAB over long-term incubation: period of 40 min at 45°C; for Peptides/liposome, two consecutive transport cycles: ADP background corrected
Description: To investigate whether an IF-to-OF transition and conformational arrest by CP13^F or CP14^F can still result in a productive substrate translocation, we followed peptide transport by wild-type TmrAB by single liposome-based flow cytometry (Figure 6A). […] CPs block multiple-turnover transport monitored by quantitative flow cytometry. (A) Single turnover by IF-to-OF switch monitored by single-liposome flow cytometry. […] Transport reactions were stopped by the addition of EDTA (10 mM). 100,000 proteoliposomes were analyzed by flow cytometry monitoring fluorescein and ATTO655 intensities. […] (C, D) Slowdown of multiple-turnover substrate transport. […] Transported peptides per liposomes were evaluated and corrected by ADP background levels as described in (B). Transport kinetics were fitted monoexponentially. […] (E) Two consecutive transport cycles. […] Transported peptides per liposome were evaluated as described in (B) and corrected by background levels in the presence of ADP. […] Figure 6-source data 1. Source data for Figure 6. Figure 6-figure supplement 1. Linear regression of quantitative flow cytometry analysis. (A) Gating strategy. Liposomes were selected according to side and forward scatter areas. Single liposomes were gated based on the height of forward scatter correlated to the area of forward scatter. […] Detergent was removed, and liposomes were extensively washed by centrifugation. […] Equal concentrations of fluorescein served as loading control (right). (C) Linear regression. […] Mean values ± SD (n = 3) are shown. Figure 6-figure supplement 1-source data 1. Source Data for Figure 6-figure supplement 1. [drawing 5] […] To confirm the conformational arrest of wild-type TmrAB by CP13^F and the slow turnover in the presence of CP14^F, we examined two successive cycles of conformational transitions by flow cytometry. […] Both steps were repeated to yield two consecutive cycles of conformational transitions. […] Taken together, the macrocyclic peptides CP13 and CP14 stabilize a pre-hydrolysis state, thus allowing a single-turnover translocation along the IF-to-OF switch. […] Transport reactions were stopped by adding EDTA (10 mM). […] For regression analysis, liposomes were loaded with increasing amounts of peptides to convert the fluorescence intensities into the number of peptides per liposome ([Stefan et al., 2020]). […] Equal amounts of carboxyfluorescein (Sigma-Aldrich) served as loading control. Detergent was removed by adding SM-2 Bio-beads (Bio-Rad) as detailed above. Liposomes were harvested for 30 min at 270,000 g and washed three times by centrifugation. Generally, 20,000-100,000 proteoliposomes were selected according to sideward and forward scatter areas. Single events were selected based on the height of forward scatter plotted against the area of forward scatter. […] Data represent mean ± SD from three experiments.

[3] = 3 min at 45°C, without CP 10.49
[4] = 5 min at 45°C, without CP 18.11
[5] = 10 min at 45°C, without CP 30.27
[6] = 20 min at 45°C, without CP 40.72
[7] = 40 min at 45°C, without CP 51.44
[8] = time 5 min (after first 5 min at 45°C)
[9] = time 65 min (after 60 min at 4°C)
[10] = time 70 min (after second 5 min at 45°C)
[11] = time 130 min (after second 60 min at 4°C)

SMILES	Effect on ATP binding to TmrAB [1]	Signal, ATP binding [1] [cpm*10^3]	Signal, Background [1] [cpm*10^3]	Peptides/liposome, time course ([2]; 1 min at 45°C) [Peptides/liposome]	Mean fluorescence intensity * 10^3, time course ([2]; 1 min at 45°C, without CP 2.29)	Peptides/liposome, time course ([2]; 3 min at 45°C) [Peptides/liposome]	Mean fluorescence intensity * 10^3, time course [2, 3]	Peptide transport in two successive IF-to-OF cycles [2]	Peptides/liposome, time course ([2]; 5 min at 45°C) [Peptides/liposome]	Mean fluorescence intensity * 10^3, time course [2, 4]	Peptides/liposome, time course ([2]; 10 min at 45°C) [Peptides/liposome]	Mean fluorescence intensity * 10^3, time course [2, 5]	Peptides/liposome, time course ([2]; 20 min at 45°C) [Peptides/liposome]	Mean fluorescence intensity * 10^3, time course [2, 6]	Peptides/liposome, time course ([2]; 40 min at 45°C) [Peptides/liposome]	Mean fluorescence intensity * 10^3, time course [2, 7]	C4^ATTO655 peptides per liposome transported along a single IF-to-OF switch [2]	Transported C4^ATTO655, Peptides/liposome [2] [Peptides/liposome]	Peptide transport rate compared to control without CP^Fs [2]	Turnover of wild-type TmrAB over long-term incubation [2]	other results
CC[C@H](C)[C@@H]1NC(=O)[C@H](Cc2c[nH]c3ccccc23)NC(=O)[C@H](CC(N)=O)NC(=O)[C@H](C)NC(=O)[C@H](CO)NC(=O)[C@@H]2CCCN2C(=O)[C@H](CC(=O)O)NC(=O)[C@@H](Cc2ccc(O)cc2)NC(=O)CSC[C@@H](C(=O)NCC(=O)N[C@@H](CO)C(=O)NCCC(=O)NCCC(=O)N[C@@H](CCCNC(=N)N)C(=O)N[C@@H](CCCCNC(=O)c2ccc3c(c2)C(=O)OC32c3ccc(O)cc3Oc3cc(O)ccc32)C(N)=O)NC(=O)[C@H]([C@@H](C)O)NC(=O)[C@H](CC(C)C)NC(=O)[C@H](CC(C)C)NC(=O)[C@H](C(C)C)NC(=O)[C@H](CC(C)C)NC1=O [CP13] ({CH2CO}-[dY]DPSANWILVLLTCGS[βAla][βAla]RK(5FAM)-NH2; thioether N-14; C-terminus assumed)	value of bound ATP exceeds the control without CPs	6.33	0.19	-0.42	-0.03 * 10^3	2.53	0.17 * 10^3	peptide transport was exclusively observed along the first IF-to-OF switch	3.33	0.23 * 10^3	5.08	0.35 * 10^3	4.95	0.34 * 10^3	5.22	0.36 * 10^3	approx. 10 peptides per liposome	13.69	drastically reduced the peptide transport rate	a single turnover driving peptide transport was observed	Effect on ATP binding to TmrAB ([1]; listed as CP13^B): only minor effects on ATP binding; Peptides/liposome, two consecutive transport cycles ([2]; time 0 min): 0.00 Peptides/liposome; Peptides/liposome, two consecutive transport cycles [2, 8]: 9.32 Peptides/liposome; Peptides/liposome, two consecutive transport cycles [2, 9]: 10.24 Peptides/liposome; Peptides/liposome, two consecutive transport cycles [2, 10]: 10.66 Peptides/liposome; Peptides/liposome, two consecutive transport cycles [2, 11]: 11.66 Peptides/liposome; Period of conformational arrest of wild-type TmrAB ([2]; two consecutive cycles): 2 h
CC(C)[C@@H]1NC(=O)[C@H](Cc2ccccc2)NC(=O)[C@@H]2CCCN2C(=O)[C@H](CC(N)=O)NC(=O)[C@H](Cc2c[nH]c3ccccc23)NC(=O)[C@H](C(C)C)NC(=O)[C@H](Cc2ccc(O)cc2)NC(=O)[C@H](Cc2ccccc2)NC(=O)[C@@H](Cc2ccc(O)cc2)NC(=O)CSC[C@@H](C(=O)NCC(=O)N[C@@H](CO)C(=O)NCCC(=O)NCCC(=O)N[C@@H](CCCNC(=N)N)C(=O)N[C@@H](CCCCNC(=O)c2ccc3c(c2)C(=O)OC32c3ccc(O)cc3Oc3cc(O)ccc32)C(N)=O)NC(=O)[C@H](CCCCN)NC(=O)[C@H](Cc2ccccc2)NC1=O [CP14] ({CH2CO}-[dY]FYVWNPFVFKCGS[βAla][βAla]RK(5FAM)-NH2; thioether N-12; C-terminus assumed)	no effect on ATP binding	5.10	0.08	0.03	0.00 * 10^3	6.21	0.43 * 10^3	peptide transport was detected in both IF-to-OF switches	14.91	1.02 * 10^3	24.30	1.67 * 10^3	38.29	2.63 * 10^3	48.57	3.34 * 10^3	~ 30 peptides per liposome	38.81	drastically reduced the peptide transport rate	slow turnover	Peptides/liposome, two consecutive transport cycles ([2]; time 0 min): 0.00 Peptides/liposome; Peptides/liposome, two consecutive transport cycles [2, 8]: 36.27 Peptides/liposome; Peptides/liposome, two consecutive transport cycles [2, 9]: 37.68 Peptides/liposome; Peptides/liposome, two consecutive transport cycles [2, 10]: 44.92 Peptides/liposome; Peptides/liposome, two consecutive transport cycles [2, 11]: 48.07 Peptides/liposome
